Experiment [1] concerns the target T1, GluR7a (Rattus norvegicus, UniProt P42264).
T1 construct: expressed in transfected cells; host or cells: HEK-293-T/17
The experiment in a line: Radioligand binding ([3H]kainate displacement), HEK-293-T/17 membranes, Example 2. The protocol:
(§1) Radioligand binding. Membrane preparations from HEK-293-T/17 cells were prepared and used in radioligand binding assays as described previously (Sanders et al., 2005). Unlabeled analogs were used to displace [3H]kainate (10-20 nM, PerkinElmer Life and Analytical Sciences, Boston, Mass.) or [3H]AMPA (20 nM, PerkinElmer Life and Analytical Sciences, Boston, Mass.) from KARs and AMPARs, respectively. Nonspecific binding was determined in the presence of 1 mM glutamate. After 1 hour incubation at 4° C., samples were harvested by rapid filtration onto Whatman GF/C membranes. Upon addition of scintillation fluid, membranes were incubated for 1 hour at room temperature. A Beckman LS5000TD scintillation counter was used for quantification (Beckman Coulter Inc., Fullerton, Calif.). Data were plotted and fit with a one-site competition curve with fixed minima and maxima using Prism 4 (GraphPad Software, Inc). Ki's were calculated with the Cheng-Prusoff equation using the determined IC5o values and the radioligand Kd. Data were plotted and fit with a one-site competition curve with fixed minima (0) and maxima (100) (Prism4, GraphPad Software, Inc.). Correlation analysis was performed with these binding data and the seizure activity of each analog, represented as ED50 values.
(§2) The pharmacological profiles of the Group I analogs, 8-deoxy-neoDH and 9-deoxyneoDH, were analyzed initially in radioligand binding experiments with expressed recombinant AMPA and kainate receptor subunits. Displacement of [3H]kainate from cell membranes with a range of analog concentrations yielded IC50 values that were then used to calculate Ki values for each analog/receptor combination. Both Group 1 analogs retained high affinity only for GluR5-2a KAR subunits (FIG. 8A). […] Weak binding to other KAR and AMPAR subunits was observed, with all Ki values estimated at >10 μM (n=3-5; Table 3, FIG. 8A).
(§3) For comparison, the Ki values for neoDH and MSVIII-19 are included in the table (Sanders et al., 2005). Removal of the C9 hydroxyl eliminated binding to all receptor subunits (Ki values estimated at >100 μM), with the exception of GluR5-2a KARs.

The target in experiment [2] is T2, KA2 (Rattus norvegicus, UniProt Q63273).
T2 construct: expressed in transfected cells; host or cells: HEK-293-T/17
T2 sequence (Q63273 15-979): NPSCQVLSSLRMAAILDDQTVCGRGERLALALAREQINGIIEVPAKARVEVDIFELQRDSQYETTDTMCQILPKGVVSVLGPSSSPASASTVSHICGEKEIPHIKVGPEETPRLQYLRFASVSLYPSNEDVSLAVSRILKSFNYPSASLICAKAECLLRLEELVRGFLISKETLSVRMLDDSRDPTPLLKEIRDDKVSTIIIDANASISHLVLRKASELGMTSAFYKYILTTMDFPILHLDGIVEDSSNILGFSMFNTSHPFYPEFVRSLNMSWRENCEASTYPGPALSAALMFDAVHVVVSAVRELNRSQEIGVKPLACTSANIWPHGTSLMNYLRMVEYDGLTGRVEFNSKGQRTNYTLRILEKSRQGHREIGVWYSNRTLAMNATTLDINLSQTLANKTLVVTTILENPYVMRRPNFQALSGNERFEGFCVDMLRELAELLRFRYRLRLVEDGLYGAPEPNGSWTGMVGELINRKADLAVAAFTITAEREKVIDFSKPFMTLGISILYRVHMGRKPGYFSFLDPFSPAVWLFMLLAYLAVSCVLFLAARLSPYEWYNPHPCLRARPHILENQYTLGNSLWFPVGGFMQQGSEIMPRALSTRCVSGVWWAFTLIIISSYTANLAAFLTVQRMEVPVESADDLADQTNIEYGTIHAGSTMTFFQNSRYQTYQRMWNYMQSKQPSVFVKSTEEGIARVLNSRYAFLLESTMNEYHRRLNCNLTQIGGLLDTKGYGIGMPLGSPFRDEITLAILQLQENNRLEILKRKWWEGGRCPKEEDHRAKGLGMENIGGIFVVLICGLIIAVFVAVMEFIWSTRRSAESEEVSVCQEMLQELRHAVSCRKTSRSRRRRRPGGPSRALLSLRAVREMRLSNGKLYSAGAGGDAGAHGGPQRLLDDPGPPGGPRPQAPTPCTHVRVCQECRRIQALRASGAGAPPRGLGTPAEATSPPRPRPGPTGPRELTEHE
The experiment is described as above. As to conditions: Cheng-Prusoff. The procedure: as §1, §2, §3

Experiment [3] deals with T3, GluR5-2a (Rattus norvegicus, UniProt P22756, DEL402-416).
T3 construct: expressed in transfected cells; host or cells: HEK-293-T/17
Described as above. The settings on record: Cheng-Prusoff. The procedure:
as §1, §2, §3

Experiment [4] deals with T4, GluR6a (Rattus norvegicus, UniProt P42260).
T4 construct: expressed in transfected cells; host or cells: HEK-293-T/17
Described as above. The settings on record: for Ki: [3H]kainate displacement, Cheng-Prusoff. The protocol:
as §1, §2, §3

Experiment [5] addresses T5, GluR5 (Rattus norvegicus, UniProt P22756).
T5 construct: expressed in transfected cells; HEK 293 (patch clamp)
The experiment in a line: Patch-clamp recordings from transfected HEK 293 cells, Example 1. In kind it is cell-based. The settings on record: Example 1, FIG. 3 and 5. The protocol:
(§4) Non-specific binding was defined in the presence of 1 mM glutamate. The effect of these analogs on electrophysiology was assessed as follows. HEK 293 cells were transfected with receptor cDNAs in combination with eGFP cDNA. Patch-clamp recordings from transfected cells were made 24-72 hours later using a fast application system described previously (Swanson et al., NEURON 1997; 19:913-26). (See FIG. 3.)
The effect of these analogs on electrophysiology also was assessed as described above. […] The results further indicate that the C8 and C9 substituents are necessary for binding to all AMPA and KAR subunits except for GluR5 subunits. The C9 polar group must be present and in the correct spatial orientation for high-affinity GluR5 subunit binding. Inter-domain contacts mediated by residue 721S are critical determinants of binding affinity. The epimer analog 9-deoxy-neoDH mimics the binding affinity of the di-deoxy analog MSVIII-19, but acts as an agonist rather than an antagonist.
For orientation: Patch clamp records ionic current or voltage across a cell membrane.

The target in experiment [6] is T6, GluR2 (Rattus norvegicus, UniProt P19491).
T6 construct: expressed in transfected cells; host or cells: COS-7 or HEK-T/17
The experiment in a line: Radioligand displacement ([3H]AMPA), Example 1. In kind it is binding. The procedure:
Dysiherbaine (DH) was used as a template for generating novel KAR ligands. (See FIG. 1.) These included 8-deoxy and 9-deoxy analogs of neodysiherbaine (neoDH). (See FIG. 2.) The binding of these analogs to glutamate receptors was assessed by radioligand binding as follows. Membrane preparations from COS-7 or HEK-T/17 cells were isolated 2-3 days after transfection. Displacement assays were performed as described previously (Swanson et al., NEURON 1997; 19:913-26). Unlabeled marine toxin analogs were used to displace [^3H]kainate or [^3H]AMPA (PerkinElmer) from kainate and AMPA receptors, respectively. (See FIG. 2 and Table 1.)
as §4
Additional epimer analogs were generated. These included 4-epi-neodysiherbaine, 8-epi-neodysiherbaine, 9-epi-neodysiherbaine, and 8,9-epi-neodysiherbaine. (See FIG. 4.) The binding of these analogs to glutamate receptors was assessed by radioligand binding as described above. (See FIG. 4 and Table 2.)
On the technique in general: Displacement assays read how much labelled ligand stays bound in the presence of the test substance.

[7] abbreviates: [3H]kainate displacement, Cheng-Prusoff, read-out: Ki GluR7a.
Setting [8] is: [3H]kainate displacement, read-out: Ki KA2.
[9] abbreviates: Tables 1-2, read-out: GluR2 binding affinity (displacement of [3H]AMPA).

9 compounds from US7973075B2, “Kainate receptor-selective epimeric analogs of dysiherbaine” (priority 2007, dated 2011) can be followed below.

“And” between values parts separate entries of the source, which are not always exact repeats. Identical values can stand only once. Like-named read-outs stand apart in the source and are kept apart here. Where only a bound is given, the exact number is not on record here.

T4 sequence (P42260 32-908): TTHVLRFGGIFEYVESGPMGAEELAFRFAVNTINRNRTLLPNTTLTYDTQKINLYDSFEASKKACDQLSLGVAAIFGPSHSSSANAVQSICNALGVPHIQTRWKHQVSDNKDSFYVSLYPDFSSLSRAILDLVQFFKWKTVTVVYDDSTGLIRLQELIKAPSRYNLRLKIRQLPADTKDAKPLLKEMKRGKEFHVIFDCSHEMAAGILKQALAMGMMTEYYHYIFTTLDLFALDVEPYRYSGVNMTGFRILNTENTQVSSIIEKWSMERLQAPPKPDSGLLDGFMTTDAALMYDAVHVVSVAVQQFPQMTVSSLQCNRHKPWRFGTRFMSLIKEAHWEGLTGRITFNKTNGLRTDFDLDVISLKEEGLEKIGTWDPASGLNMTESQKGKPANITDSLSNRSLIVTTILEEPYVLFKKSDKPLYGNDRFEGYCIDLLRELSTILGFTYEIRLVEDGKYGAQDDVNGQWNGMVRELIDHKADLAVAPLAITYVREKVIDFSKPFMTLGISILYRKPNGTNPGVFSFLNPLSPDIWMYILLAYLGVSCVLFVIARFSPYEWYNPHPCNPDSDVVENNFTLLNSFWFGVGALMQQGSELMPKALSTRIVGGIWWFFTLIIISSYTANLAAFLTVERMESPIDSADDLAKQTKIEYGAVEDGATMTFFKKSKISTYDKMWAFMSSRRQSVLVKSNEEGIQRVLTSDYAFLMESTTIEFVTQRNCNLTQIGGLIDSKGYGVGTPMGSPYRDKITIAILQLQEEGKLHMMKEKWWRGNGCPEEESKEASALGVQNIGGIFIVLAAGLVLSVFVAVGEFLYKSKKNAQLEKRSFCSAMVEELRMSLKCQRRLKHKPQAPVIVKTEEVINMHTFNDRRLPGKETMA
T6 sequence (P19491 22-883 isoform P19491-2 limits assumed): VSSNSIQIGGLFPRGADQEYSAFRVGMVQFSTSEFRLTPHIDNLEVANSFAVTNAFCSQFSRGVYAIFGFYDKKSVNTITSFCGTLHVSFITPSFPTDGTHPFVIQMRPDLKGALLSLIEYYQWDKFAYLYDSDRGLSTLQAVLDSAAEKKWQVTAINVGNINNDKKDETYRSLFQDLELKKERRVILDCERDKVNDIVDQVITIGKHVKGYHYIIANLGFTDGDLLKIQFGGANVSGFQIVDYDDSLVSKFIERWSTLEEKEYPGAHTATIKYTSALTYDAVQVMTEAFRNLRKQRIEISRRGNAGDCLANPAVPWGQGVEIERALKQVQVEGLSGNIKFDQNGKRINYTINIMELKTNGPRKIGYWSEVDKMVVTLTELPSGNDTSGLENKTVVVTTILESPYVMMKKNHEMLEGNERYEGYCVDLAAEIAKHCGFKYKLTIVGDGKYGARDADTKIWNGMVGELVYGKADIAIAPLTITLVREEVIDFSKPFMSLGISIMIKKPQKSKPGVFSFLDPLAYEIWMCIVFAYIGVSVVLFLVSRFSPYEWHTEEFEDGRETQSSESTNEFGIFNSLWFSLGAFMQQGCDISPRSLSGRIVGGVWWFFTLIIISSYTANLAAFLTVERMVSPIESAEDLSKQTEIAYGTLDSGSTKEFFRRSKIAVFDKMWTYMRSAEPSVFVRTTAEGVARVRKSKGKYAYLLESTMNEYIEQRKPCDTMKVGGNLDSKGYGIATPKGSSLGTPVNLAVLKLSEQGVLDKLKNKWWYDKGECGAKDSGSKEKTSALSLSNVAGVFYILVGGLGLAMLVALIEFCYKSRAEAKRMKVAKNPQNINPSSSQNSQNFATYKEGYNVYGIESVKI
T1 sequence (P42264 32-919): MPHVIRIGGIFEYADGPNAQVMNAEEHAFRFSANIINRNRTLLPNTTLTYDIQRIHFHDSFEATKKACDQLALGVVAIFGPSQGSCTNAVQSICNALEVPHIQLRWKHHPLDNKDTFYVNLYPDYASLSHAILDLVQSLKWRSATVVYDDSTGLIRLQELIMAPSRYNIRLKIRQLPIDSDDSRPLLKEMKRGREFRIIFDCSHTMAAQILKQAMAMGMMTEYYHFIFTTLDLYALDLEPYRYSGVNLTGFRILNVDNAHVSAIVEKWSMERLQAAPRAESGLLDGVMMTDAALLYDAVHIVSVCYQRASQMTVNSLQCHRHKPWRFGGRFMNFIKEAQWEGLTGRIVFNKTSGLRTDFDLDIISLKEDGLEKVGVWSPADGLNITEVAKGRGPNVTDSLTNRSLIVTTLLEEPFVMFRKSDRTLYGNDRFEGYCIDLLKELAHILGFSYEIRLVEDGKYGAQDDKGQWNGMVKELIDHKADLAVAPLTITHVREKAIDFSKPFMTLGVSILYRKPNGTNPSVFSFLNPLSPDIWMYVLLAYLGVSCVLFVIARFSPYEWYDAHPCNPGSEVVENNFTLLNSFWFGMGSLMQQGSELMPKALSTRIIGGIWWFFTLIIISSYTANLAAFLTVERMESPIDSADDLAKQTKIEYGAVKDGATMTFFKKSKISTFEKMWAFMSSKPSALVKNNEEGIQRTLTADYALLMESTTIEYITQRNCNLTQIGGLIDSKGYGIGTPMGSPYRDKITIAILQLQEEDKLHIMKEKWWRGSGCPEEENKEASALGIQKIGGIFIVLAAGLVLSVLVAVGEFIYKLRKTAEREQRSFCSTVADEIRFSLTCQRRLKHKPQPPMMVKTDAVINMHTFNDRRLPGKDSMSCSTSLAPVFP
T3 sequence (P22756 with tags, fused parts or gaps isoform P22756-2 limits assumed, stated change not applied): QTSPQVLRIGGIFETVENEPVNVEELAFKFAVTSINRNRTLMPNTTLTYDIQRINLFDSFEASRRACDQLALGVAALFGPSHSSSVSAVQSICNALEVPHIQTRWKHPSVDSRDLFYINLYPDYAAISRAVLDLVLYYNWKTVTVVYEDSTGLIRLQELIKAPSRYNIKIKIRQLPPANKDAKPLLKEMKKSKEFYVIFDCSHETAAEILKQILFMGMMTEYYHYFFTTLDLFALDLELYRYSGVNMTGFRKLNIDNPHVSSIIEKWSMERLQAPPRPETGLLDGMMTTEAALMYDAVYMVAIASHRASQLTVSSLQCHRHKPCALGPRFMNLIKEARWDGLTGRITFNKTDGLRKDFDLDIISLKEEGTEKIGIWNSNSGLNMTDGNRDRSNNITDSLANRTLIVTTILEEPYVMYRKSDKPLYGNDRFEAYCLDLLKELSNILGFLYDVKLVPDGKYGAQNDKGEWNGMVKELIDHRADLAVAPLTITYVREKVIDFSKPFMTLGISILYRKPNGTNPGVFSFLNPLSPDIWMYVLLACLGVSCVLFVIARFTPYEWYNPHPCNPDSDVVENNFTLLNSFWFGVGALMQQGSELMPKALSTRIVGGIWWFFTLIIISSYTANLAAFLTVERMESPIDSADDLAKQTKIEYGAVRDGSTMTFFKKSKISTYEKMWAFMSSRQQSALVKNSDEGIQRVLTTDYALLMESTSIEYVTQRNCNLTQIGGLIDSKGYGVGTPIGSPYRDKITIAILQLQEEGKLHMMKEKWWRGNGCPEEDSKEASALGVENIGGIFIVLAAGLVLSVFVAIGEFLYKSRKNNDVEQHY
T5 sequence (P22756 with tags, fused parts or gaps isoform P22756-2): as the sequence (P22756 with tags, fused parts or gaps isoform P22756-2 limits assumed, stated change not applied) above

For the compound `NC(CC1(C(=O)O)CC2OCC(O)C(O)C2O1)C(=O)O` (stereo not drawn) [8-epi-neoDH, 8-epi-neodysiherbaine], the Ki in experiment [1] (setting [7]) was 1.7 µM; in experiment [2] (setting [8]) it was greater than 100 µM; in experiment [3] (read-out: Ki GluR5-2a), 0.034 µM; in experiment [4] (read-out: Ki GluR6a), 22 µM; in experiment [6] (setting [9]), 23 µM. Besides, the “agonist or antagonist at GluR5 (electrophysiology)” value in experiment [5] is listed as “GluR5 agonist”.
On to `N[C@@H](C[C@]1(C(=O)O)C[C@H]2OC[C@@H](O)C[C@H]2O1)C(=O)O` [8-deoxy-neoDH], for which the Ki in experiment [1] was 2.9 µM; in experiment [2] (Ki KA2, [3H]kainate displacement), 20 µM; in experiment [3] (Ki GluR5-2a), 0.0015 µM; in experiment [4] (Ki GluR6a), 48 µM; in experiment [6], greater than 100 µM. Also, the “agonist or antagonist at GluR5 (electrophysiology)” value in experiment [5] is “GluR5 agonists”.
In the case of `N[C@@H](C[C@]1(C(=O)O)C[C@H]2OCC[C@@H](O)[C@H]2O1)C(=O)O` [9-deoxy-neoDH], the Ki in experiment [1] (setting [7]) was greater than 100 µM; in experiment [2] (setting [8]) it was greater than 100 µM; in experiment [3] (read-out: Ki GluR5-2a), 0.169 µM; in experiment [4] (read-out: Ki GluR6a), greater than 100 µM; in experiment [6] (setting [9]), greater than 100 µM. In experiment [4], the “binding affinity for GluR6a subunit” value is “do not exhibit measurable affinity”. Further, in experiment [5], the “agonist or antagonist at GluR5 (electrophysiology)” value is recorded as “GluR5 agonists”.
On to `N[C@@H](C[C@@]1(C(=O)O)CC2OCC(O)C(O)C2O1)C(=O)O` (single isomer, unassigned) [4-epi-neoDH, 4-epi-neodysiherbaine], for which the “binding to GluR7 receptor” value in experiment [1] is listed as “Neither 2,4-epineoDH nor 4-epi-neoDH bound the GluR7 receptor appreciably”. Moreover, the Ki in experiment [1] (setting [7]) is greater than 100 µM; in experiment [2] (setting [8]), roughly 30 µM; in experiment [3] (read-out: Ki GluR5-2a), 0.559 µM and ~0.56 µM; in experiment [4] (read-out: Ki GluR6a), 6.7 µM. Moreover, the “agonist or antagonist at GluR5 (electrophysiology)” value in experiment [5] is “GluR5/GluR6 antagonist”.
As for `NC(CC1(C(=O)O)CC2OCC(O)C(O)C2O1)C(=O)O` (stereo not drawn) [9-epi-neoDH, 9-epi-neodysiherbaine], the Ki in experiment [1] (setting [7]) was greater than 100 µM; in experiment [2] (setting [8]) it was greater than 100 µM; in experiment [3] (read-out: Ki GluR5-2a), 0.292 µM; in experiment [4] (read-out: Ki GluR6a), greater than 100 µM; in experiment [6] (setting [9]), greater than 100 µM. In experiment [4], the “binding affinity for GluR6a subunit” value is “do not exhibit measurable affinity”.
Take `NC(CC1(C(=O)O)CC2OCC(O)C(O)C2O1)C(=O)O` (stereo not drawn) [8,9-epi-neoDH, 8,9-epi-neodysiherbaine]: the Ki was greater than 100 µM in experiment [1] (setting [7]); greater than 100 µM in experiment [2] (setting [8]); 48 µM in experiment [3] (read-out: Ki GluR5-2a); greater than 100 µM in experiment [4] (read-out: Ki GluR6a); greater than 100 µM in experiment [6] (setting [9]). The “agonist or antagonist at GluR5 (electrophysiology)” value in experiment [5] is reported as “GluR5 antagonist”.
As for `N[C@@H](C[C@]1(C(=O)O)C[C@H]2OCCC[C@H]2O1)C(=O)O` [MSVIII-19, 8,9-dideoxy-neoDH], the “binding affinity for GluR6a subunit” value in experiment [4] was “do not exhibit measurable affinity”.
As to `NC(CC1(C(=O)O)CC2OCC(F)C(O)C2O1)C(=O)O` (stereo not drawn) [9-F-8-epi-neoDH], the Ki in experiment [1] (setting [7]) was greater than 100 µM; in experiment [2] (setting [8]) it was greater than 100 µM; in experiment [3] (read-out: Ki GluR5-2a) it was 0.028 µM; in experiment [4] (read-out: Ki GluR6a), greater than 100 µM. For the same compound, the “binding affinity for GluR6a subunit” value in experiment [4] was “do not exhibit measurable affinity”.
Turning to `N[C@@H](C[C@@]1(C(=O)O)CC2OCC(O)C(O)C2O1)C(=O)O` (single isomer, unassigned) [2,4-epi-neoDH, 2,4-epi-neodysiherbaine], in experiment [1], the “binding to GluR7 receptor” value is listed as “Neither 2,4-epineoDH nor 4-epi-neoDH bound the GluR7 receptor appreciably”. Further, the Ki was greater than 100 µM in experiment [1] (setting [7]), greater than 100 µM in experiment [2] (setting [8]), 2.4 µM in experiment [3] (read-out: Ki GluR5-2a) and 7.7 µM in experiment [4] (read-out: Ki GluR6a).
